According to the supplement of paper PMC10307832:

Key:
Experiment in all cases: relative viability (nuclei count vs DMSO), 5 days (fraction); higher = more cells survive
Neratinib + Palbociclib = compound: CCOc1cc2ncc(C#N)c(Nc3ccc(OCc4ccccn4)c(Cl)c3)c2cc1NC(=O)/C=C/CN(C)C [Neratinib] + CC(=O)c1c(C)c2cnc(Nc3ccc(N4CCNCC4)cn3)nc2n(C2CCCC2)c1=O [Palbociclib] (partner 0.5 µM)
In short: (§1)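 Lung cancer cell lines in 1536-well plates were dosed by pin tool the day after seeding, either with one drug alone or with a fixed anchor-drug dose plus five library-drug doses (not always all listed) in √10 steps. After 5 days, cells were fixed and their nuclei stained in one step (final 0.05% Triton X-100, 1% formaldehyde, 1 ug/ml Hoechst), then counted on 4× images. Relative viability is the nuclei count in treated wells divided by that in vehicle wells. Values are medians of duplicate plates.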

Neratinib + Pictilisib = compound: CCOc1cc2ncc(C#N)c(Nc3ccc(OCc4ccccn4)c(Cl)c3)c2cc1NC(=O)/C=C/CN(C)C [Neratinib] + CS(=O)(=O)N1CCN(Cc2cc3nc(-c4cccc5[nH]ncc45)nc(N4CCOCC4)c3s2)CC1 [Pictilisib] (partner 1 µM)
In short: as §1

Neratinib + Phenformin = compound: CCOc1cc2ncc(C#N)c(Nc3ccc(OCc4ccccn4)c(Cl)c3)c2cc1NC(=O)/C=C/CN(C)C [Neratinib] + N=C(N)NC(=N)NCCc1ccccc1 [Phenformin] (partner 250 µM)
In short: as §1

Neratinib + Decitabine = compound: CCOc1cc2ncc(C#N)c(Nc3ccc(OCc4ccccn4)c(Cl)c3)c2cc1NC(=O)/C=C/CN(C)C [Neratinib] + Nc1ncn([C@H]2C[C@H](O)[C@@H](CO)O2)c(=O)n1 [Decitabine] (partner 2 µM)
In short: as §1

| Cell Line | relative viability (Neratinib + Palbociclib; first compound 0.01 µM) | relative viability (Neratinib + Palbociclib; first compound 0.03162 µM) | relative viability (Neratinib + Palbociclib; first compound 0.1 µM) | relative viability (Neratinib + Palbociclib; first compound 0.3162 µM) | relative viability (Neratinib + Palbociclib; first compound 1 µM) | relative viability (Neratinib + Pictilisib; first compound 0.01 µM) | relative viability (Neratinib + Pictilisib; first compound 0.03162 µM) | relative viability (Neratinib + Pictilisib; first compound 0.1 µM) | relative viability (Neratinib + Pictilisib; first compound 0.3162 µM) | relative viability (Neratinib + Pictilisib; first compound 1 µM) | relative viability (Neratinib + Phenformin; first compound 0.01 µM) | relative viability (Neratinib + Phenformin; first compound 0.1 µM) | relative viability (Neratinib + Phenformin; first compound 0.3162 µM) | relative viability (Neratinib + Phenformin; first compound 1 µM) | relative viability (Neratinib + Decitabine; first compound 0.01 µM) | relative viability (Neratinib + Decitabine; first compound 0.03162 µM) | relative viability (Neratinib + Decitabine; first compound 0.1 µM) | relative viability (Neratinib + Decitabine; first compound 0.3162 µM) | relative viability (Neratinib + Decitabine; first compound 1 µM) | relative viability (Neratinib + Phenformin; first compound 0.03162 µM) |
| --- | --- | --- | --- | --- | --- | --- | --- | --- | --- | --- | --- | --- | --- | --- | --- | --- | --- | --- | --- | --- |
| NCI-H647 | 0.446 | 0.545 | 0.393 | 0.344 | 0.188 | 0.437 | 0.506 | 0.456 | 0.364 | 0.183 | 0.574 | 0.398 | 0.368 | 0.113 | 0.438 | 0.453 | 0.364 | 0.358 | 0.371 | – |
| ABC-1 | 0.618 | 0.721 | 0.472 | 0.587 | 0.486 | 0.783 | 0.582 | 0.672 | 0.666 | 0.387 | 0.211 | 0.285 | 0.231 | 0.215 | 1.21 | 1.31 | 1.23 | 1.07 | 0.746 | 0.236 |
| A-427 | 0.554 | 0.576 | 0.565 | 0.488 | 0.513 | 0.952 | 0.738 | 0.773 | 0.675 | 0.62 | 0.427 | 0.32 | 0.281 | 0.268 | 0.558 | 0.606 | 0.573 | 0.521 | 0.54 | 0.313 |
| LCLC-97TM1 | 0.258 | 0.237 | 0.228 | – | 0.117 | 0.212 | 0.164 | 0.199 | 0.143 | 0.138 | 0.461 | 0.379 | 0.29 | 0.177 | 0.258 | 0.251 | 0.276 | – | 0.215 | 0.462 |
| HCC-15 | 0.764 | 0.828 | 0.738 | 0.692 | 0.511 | 0.824 | 0.809 | 0.712 | 0.781 | 0.618 | 0.537 | 0.456 | 0.368 | 0.349 | 0.684 | 0.703 | 0.646 | 0.662 | 0.597 | 0.576 |
| NCI-H727 | 0.616 | 0.69 | – | 0.639 | 0.538 | 0.337 | 0.256 | – | 0.516 | 0.258 | 0.521 | 0.294 | 0.4 | 0.595 | 0.897 | 0.846 | – | 0.796 | 0.717 | 0.597 |
| NCI-H1651 | 0.542 | 0.558 | 0.499 | 0.45 | 0.467 | 0.661 | 0.633 | 0.422 | 0.449 | 0.343 | 0.332 | 0.339 | 0.27 | 0.32 | 0.63 | 0.663 | 0.391 | 0.585 | 0.543 | 0.383 |
| NCI-H1792 | 0.813 | 0.71 | 0.414 | 0.616 | 0.445 | 0.311 | 0.274 | 0.254 | 0.278 | 0.126 | 0.298 | 0.292 | 0.261 | 0.26 | 0.731 | 0.576 | 0.503 | 0.516 | 0.546 | 0.2 |
